Legend:
[1] = Volume of distribution at steady state in rat at 1 mg/kg, iv; format: ADME, organism-based; details: in vivo, read-out: Vdss
[2] = AUC in rat at 1 mg/kg, iv; format: ADME, organism-based; details: in vivo
[3] = Clearance in rat at 1 mg/kg, iv; format: ADME, organism-based; details: in vivo
[4] = Cmax in rat at 1 mg/kg, iv; format: ADME, organism-based; details: in vivo
[5] = MRT in rat at 1 mg/kg, iv; format: ADME, organism-based; details: in vivo
[6] = Unbound fraction in rat plasma at 1 mg/kg, iv; format: ADME, organism-based
[7] = AUC in rhesus monkey at 1 mg/kg, iv; format: ADME, organism-based, Macaca mulatta; details: in vivo
[8] = Clearance in rhesus monkey at 1 mg/kg, iv; format: ADME, organism-based, Macaca mulatta; details: in vivo
[9] = Volume of distribution at steady state in rhesus monkey at 1 mg/kg, iv; format: ADME, organism-based, Macaca mulatta; details: in vivo, read-out: Vdss
[10] = Cmax in rhesus monkey at 1 mg/kg, iv; format: ADME, organism-based, Macaca mulatta; details: in vivo
[11] = MRT in rhesus monkey at 1 mg/kg, iv; format: ADME, organism-based, Macaca mulatta; details: in vivo
[12] = Unbound fraction in rhesus monkey plasma at 1 mg/kg, iv; format: ADME, organism-based, Macaca mulatta
[13] = Inhibition of Metallo-beta-lactamase IMP-1 (unknown origin); set-up: species or system Bacteria
[14] = Inhibition of Metallo-beta-lactamase VIM-1 (unknown origin); set-up: species or system Bacteria
[15] = Inhibition of Metallo-beta-lactamase VIM-2 (unknown origin); set-up: species or system Bacteria
Escherichia coli [16] = test: Antibacterial activity against NDM-1 expressing Escherichia coli CLB30016 assessed as inhibition of bacterial growth in presence of IMI by absorbance based assay; format: functional
Serratia marcescens = test: Antibacterial activity against IMP-1 expressing Serratia marcescens CL5741 assessed as inhibition of bacterial growth in presence of IMI by absorbance based assay; format: functional
Klebsiella pneumoniae = test: Antibacterial activity against VIM-1 expressing Klebsiella pneumoniae IHMA599644 assessed as inhibition of bacterial growth in presence of IMI by absorbance based assay; format: functional
Pseudomonas aeruginosa = test: Antibacterial activity against wildtype isogenic efflux/IMP-1 expressing Pseudomonas aeruginosa MB9798 assessed as inhibition of bacterial growth in presence of IMI by absorbance based assay; format: functional
[17] = Efflux ratio of MITC95 for antibacterial activity against wildtype isogenic efflux/IMP-1 expressing Pseudomonas aeruginosa MB9798 assessed as inhibition of bacterial growth in presence of IMI to MITC95 for antibacterial activity against mutant isogenic efflux/IMP-1 expressing Pseudomonas aeruginosa MB9799 assessed as inhibition of bacterial growth in presence of IMI; format: functional
[18] = Cmax in rat at 100 mg/kg, iv; format: ADME, organism-based; details: in vivo
[19] = Toxicity in cardiovascular rat model assessed as increase in histamine release in plasma at 100 mg/kg, iv; format: organism-based; details: in vivo
[20] = Toxicity in rat mast cells assessed as degranulation by measuring histamine release at 900 microM; format: cell-based; details: mast cell
[21] = Toxicity in cardiovascular rat model assessed as decrease in blood pressure at 30 mg/kg,iv for 20 mins and measured after 20 mins of iv infusion with 100 mg/kg; format: organism-based; details: in vivo, 40 min
[22] = Toxicity in cardiovascular rat model assessed as increase in histamine release in plasma at 30 mg/kg,iv for 20 mins and measured after 20 mins of iv infusion with 100 mg/kg; format: organism-based; details: in vivo, 40 min
[23] = Toxicity in rhesus monkey assessed as adverse effects at 1 mg/kg, iv measured after 24 hrs; format: organism-based, Macaca mulatta; details: in vivo
[24] = Cmax in rhesus monkey at 1 mg/kg, iv measured after 24 hrs; format: ADME, organism-based, Macaca mulatta; details: in vivo
Staphylococcus aureus = test: Antibacterial activity against wild type Staphylococcus aureus; format: functional, organism-based
Escherichia coli [25] = test: Antibacterial activity against efflux mutant Escherichia coli; format: functional, organism-based
[26] = Hemolytic activity in sheep red blood cells assessed as hemolysis; format: toxicity, cell-based, Ovis aries, Erythrocyte

SMILES: NCCS(=O)(=O)c1ccc(-c2cccc3sc(N)nc23)c(-c2nn[nH]n2)c1S(N)(=O)=O
- Vd [1]: 0.46 L/kg
- AUC [2]: 1.15 µM·h
- clearance [3]: 1.93 L/h/kg
- Cmax [4]: 5.8 µM
- MRT [5]: 0.23 h
- fraction unbound [6]: 0.37
- AUC [7]: 10.2 µM·h
- clearance [8]: 0.216 L/h/kg
- Vd [9]: 0.39 L/kg
- Cmax [10]: 18 µM
- MRT [11]: 1.81 h
- fraction unbound [12]: 0.23
- IC50 [13]: 0.23 nM
- IC50 [14]: 0.31 nM
- IC50 [15]: 1 nM
- MITC95 (Escherichia coli [16]): 0.78 µM
- MITC95 (Serratia marcescens): 1.56 µM
- MITC95 (Klebsiella pneumoniae): 3.13 µM
- MITC95 (Pseudomonas aeruginosa): 0.78 µM
- Ratio [17]: ~1
- Cmax [18]: 569 µM
- Activity [19]: Non-toxic
- Activity [20]: Non-toxic
- Activity [21]: Toxic
- Activity [22]: Non-toxic
- Activity [23]: Non-toxic
- Cmax [24]: 18 µM
- IC50 (Staphylococcus aureus): > 200000 nM
- IC50 (Escherichia coli [25]): > 200000 nM
- IC50 [26]: > 200000 nM
